Data published in patent US9057727B2, “Screening methods using G-protein coupled receptors and related compositions” (The General Hospital Corporation, priority 2007, dated 2015).
Where two headings read alike, the source gives them in different places. Ends that are not written are not given here. Peptide text beside a SMILES is read from it.

Assays:
[1] = system: LLCPK1-B64 cells or SaOS-2 cells; assay: cAMP screen of substituted PTHrP(1-28) analogs (% parent); assay type: cell-based; conditions: parent PTHrP(1-28)NH
Outline: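 LLCPK1-B64 or SaOS-2 cells exposed to peptide analogs at 3×10^−9M with IBMX for 30 minutes at room temperature, then cAMP measured. Each analog's response expressed as percentage of that for parent PTHrP(1-28).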

MC3T3-E1 cells = assay: cAMP in MC3T3-E1 cells, dose-response; assay type: cell-based
Procedure: In the 1-30 scaffold, Gly, Ser, Leu, Asn, Gln, Trp, Glu, and Lys were substituted at position 29; Gly, Ser, Leu, Asn, Asp, Trp, and Lys were substituted at position 30; and Ser, Leu, Asn, Val, Trp, Glu, and Lys were substituted at position 31. […] These peptides were tested for cAMP activity in MC3T3-E1 cells.

[2] = biological target: T1, human PTHR, G protein-uncoupled conformation (R^0) (Homo sapiens, UniProt Q03431); assay: Competition binding to R0 conformation of hPTHR (COS-7 membranes, GTPγS, 125I-PTH(1-34) tracer); conditions: for IC50: read-out: R^0 binding affinity hPTHR IC50; for screen human PIR R0 (% parent): parent PTHrP(1-28)NH
T1 construct: expressed in transfected cells; host or cells: COS-7, transient (Fugene-6)
T1 sequence (Q03431 27-593): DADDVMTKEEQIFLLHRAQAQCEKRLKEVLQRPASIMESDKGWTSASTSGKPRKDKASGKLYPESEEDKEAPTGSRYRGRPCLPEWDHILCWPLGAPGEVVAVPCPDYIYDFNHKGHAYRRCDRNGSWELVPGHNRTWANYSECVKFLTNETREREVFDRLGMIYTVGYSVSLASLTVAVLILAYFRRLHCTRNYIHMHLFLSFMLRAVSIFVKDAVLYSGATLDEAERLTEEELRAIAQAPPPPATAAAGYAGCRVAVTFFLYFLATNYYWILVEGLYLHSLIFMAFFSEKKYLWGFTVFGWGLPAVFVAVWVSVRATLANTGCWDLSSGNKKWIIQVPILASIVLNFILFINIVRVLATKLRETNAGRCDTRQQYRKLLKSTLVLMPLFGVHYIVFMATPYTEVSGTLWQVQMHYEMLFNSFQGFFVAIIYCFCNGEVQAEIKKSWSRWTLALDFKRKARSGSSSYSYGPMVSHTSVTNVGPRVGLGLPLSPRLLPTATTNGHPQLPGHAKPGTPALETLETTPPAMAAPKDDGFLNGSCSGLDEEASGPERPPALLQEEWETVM
Procedure: Membranes were prepared from COS-7 cells transfected with the hPTHR alone. GTPγS ([…]) was added to the binding reactions so as to functionally uncouple receptor-heterotrimeric G protein complexes, thus enriching for the R^0 (and R) conformations, relative to RG.
Reactions contained a total membrane protein concentration of 20 to 100 μg/mL, and a total radioactivity concentration of approximately 150,000 cpm/ml. Unlabeled peptide ligands and/or GTPγS (Sigma-Aldrich Inc. St. Louis, Mo.) were added to the reactions as indicated.
Membranes, tracer radioligand, and various concentrations of unlabeled ligands and/or GTPγS were incubated in the wells for 90 minutes, following which, the reaction plates were processed by rapid vacuum filtration to separate bound from free radioligand, as described above. […] For both radioligands, the non-specific binding was determined in reactions containing a saturating concentration of the unlabeled analog of the radioligand. The specifically bound radioactivity was calculated as a percent of the radioactivity specifically bound in the absence of a competing ligand or GTPγS.
To assess the capacities of various unlabeled peptide ligands to bind to the G protein-uncoupled and G protein-coupled PTHR conformations (R^0 and RG, respectively), membranes were prepared from transiently transfected COS-7 cells and the following assay conditions.

SaOS cells = assay: cAMP production in SaOS cells, dose-response; assay type: cell-based
[3] = biological target: T2, human PTHR, G protein-coupled conformation (RG) (Homo sapiens, UniProt Q03431); assay: Competition binding to RG conformation of hPTHR (COS-7 membranes, GαsND, 125I-[Aib1,3,M]PTH(1-15) tracer); conditions: for screen human PIR RG (% parent): parent PTHrP(1-28)NH
T2 construct: expressed in transfected cells; host or cells: COS-7, transient (Fugene-6); membranes
T2 sequence (Q03431 27-593): T1 sequence (Q03431 27-593)

[4] = Calcemic action in normal rats (blood ionized calcium); assay type: in vivo; conditions: normal rats, i.v.
Procedure: Binding to the rat PTHR was also measured in vitro.
Concentration of peptides in stock solution were adjusted by dilution with 25 mmol/L phosphate-citrate buffer/100 mmol/L NaCl/0.05% Tween 80 (pH. 5.0) (PC-buffer). All peptides were allowed to stand on ice immediately before administration.
Female SD-IGS rat at 8 weeks of age (Charles River Japan, Inc.) were measured for their body weight. Blood was collected by tail vein into heparinized capillary tubes and measured for baseline levels of blood ionized calcium and pH using Ca^++/pH analyzer (Model 634/Bayer Medical Ltd.) to give the corrected level of ionized calcium at pH 7.4 for each sample. Rats received intravenous administration of each peptides at a dose of 1 ml/kg. Peptides were administered to groups of 6 rats each respectively. At 1, 2, 4, or 6 hours after administration, blood was collected by tail vein to monitor the time course of corrected blood ionized calcium levels. The time course of changes in corrected ionized calcium levels, compared to vehicle, and are expressed as means+/−standard error.

[5] = Table 2, read-out: MC3T3-E1 cAMP EC50
[6] = Table 3, read-out: dose-response cAMP in MC3T3-E1 (EC50)
[7] = Table 2, read-out: SaOS camp EC50
[8] = Table 3, read-out: dose-response cAMP in SaOS (EC50)
[9] = Table 2, read-out: RG binding affinity hPTHR IC50

Compound | EC50 (MC3T3-E1 cells; [5]) | EC50 (MC3T3-E1 cells; [6]) | R0/RG selectivity ([2]; Table 2, hPTHR) | IC50 ([2]; Table 2) | screen human PIR R0 (% parent) [2] | EC50 (SaOS cells; [7]) | EC50 (SaOS cells; [8]) | IC50 [3, 9] | screen human PIR RG (% parent) [3] | IC50 ([3]; Table 3, read-out: dose-response human PIR RG (IC50 nM)) | screen cAMP (% parent) [1] | calcemic action (blood ionized calcium), in words [4]
CC[C@H](C)[C@H](NC(=O)[C@H](CC(C)C)NC(=O)[C@H](CCCCN)NC(=O)[C@H](Cc1c[nH]cn1)NC(=O)[C@H](CC(C)C)NC(=O)[C@H](Cc1ccccc1)NC(=O)[C@H](C)NC(=O)[C@H](CCCNC(=N)N)NC(=O)[C@H](CCCNC(=N)N)NC(=O)[C@H](CCCNC(=N)N)NC(=O)[C@H](C)NC(=O)[C@H](CC(=O)O)NC(=O)[C@H](CCC(N)=O)NC(=O)[C@@H](NC(=O)[C@H](CO)NC(=O)[C@H](CCCCN)NC(=O)CNC(=O)[C@H](CCCCN)NC(=O)[C@H](CC(=O)O)NC(=O)[C@H](Cc1c[nH]cn1)NC(=O)[C@H](CC(C)C)NC(=O)[C@H](CC(C)C)NC(=O)[C@H](CCC(N)=O)NC(=O)[C@H](Cc1c[nH]cn1)NC(=O)[C@H](CCC(=O)O)NC(=O)[C@H](CO)NC(=O)[C@@H](NC(=O)[C@H](C)N)C(C)C)[C@@H](C)CC)C(N)=O [A18, 22, K26-PTHrP(1-28)NH, A18,22,K26-PTHrP(1-28)] (H-AVSEHQLLHDKGKSIQDARRRAFLHKLI-NH2; N-terminus assumed) | 0.091 nM | 0.091 nM | 18079 | 1810 nM | 178 % parent | 0.024 nM | 0.024 nM | 0.1 nM | 193 % parent | – | 405 % parent | –
CC[C@H](C)[C@H](NC(=O)[C@H](CC(C)C)NC(=O)[C@H](CCCCN)NC(=O)[C@H](CC(C)C)NC(=O)[C@H](CC(C)C)NC(=O)[C@H](Cc1ccccc1)NC(=O)[C@H](CO)NC(=O)[C@H](CCCNC(=N)N)NC(=O)[C@H](CCCNC(=N)N)NC(=O)[C@H](CCCNC(=N)N)NC(=O)[C@H](C)NC(=O)[C@H](CC(=O)O)NC(=O)[C@H](CCC(N)=O)NC(=O)[C@@H](NC(=O)[C@H](CO)NC(=O)[C@H](CCCCN)NC(=O)CNC(=O)[C@H](CCCCN)NC(=O)[C@H](CC(=O)O)NC(=O)[C@H](Cc1c[nH]cn1)NC(=O)[C@H](CC(C)C)NC(=O)[C@H](CC(C)C)NC(=O)[C@H](CCC(N)=O)NC(=O)[C@H](Cc1c[nH]cn1)NC(=O)[C@H](CCC(=O)O)NC(=O)[C@H](CO)NC(=O)[C@@H](NC(=O)[C@H](C)N)C(C)C)[C@@H](C)CC)C(N)=O [A18, S22, L25, K26-PTHrP(1-28)NH, A18,S22,L25,K26-PTHrP(1-28)] (H-AVSEHQLLHDKGKSIQDARRRSFLLKLI-NH2; N-terminus assumed) | – | – | – | – | – | – | 0.009 nM | – | – | 0.1 nM | 367 % parent | –
AVAEIQLMHQRGKSIQDLRRRFFLHHLIAEIHTAEI (AVAEIQLMHQRGKSIQDLRRRFFLHHLIAEIHTAEI-OH) [Mc-PTH(1-11)/PTHrP(15-36)] | – | – | – | – | – | – | – | – | – | – | – | Prolonged calcemic effects

Now from value to compound, other results behind:

EC50 (MC3T3-E1 cells; [5]) | EC50 (MC3T3-E1 cells; [6]) | R0/RG selectivity ([2]; Table 2, hPTHR) | IC50 ([2]; Table 2) | screen human PIR R0 (% parent) [2] | EC50 (SaOS cells; [7]) | EC50 (SaOS cells; [8]) | IC50 [3, 9] | screen human PIR RG (% parent) [3] | IC50 ([3]; Table 3, read-out: dose-response human PIR RG (IC50 nM)) | Compound | screen cAMP (% parent) [1] | calcemic action (blood ionized calcium), in words [4]
0.067 nM | 0.067 nM | – | 144 nM | – | 0.008 nM | – | 0.05 nM | – | – | CC[C@H](C)[C@H](NC(=O)[C@H](CC(C)C)NC(=O)[C@H](CCCCN)NC(=O)[C@H](CC(C)C)NC(=O)[C@H](CC(C)C)NC(=O)[C@H](Cc1ccccc1)NC(=O)[C@H](C)NC(=O)[C@H](CCCNC(=N)N)NC(=O)[C@H](CCCNC(=N)N)NC(=O)[C@H](CCCNC(=N)N)NC(=O)[C@H](C)NC(=O)[C@H](CC(=O)O)NC(=O)[C@H](CCC(N)=O)NC(=O)[C@@H](NC(=O)[C@H](CO)NC(=O)[C@H](CCCCN)NC(=O)CNC(=O)[C@H](CCCCN)NC(=O)[C@H](CC(=O)O)NC(=O)[C@H](Cc1c[nH]cn1)NC(=O)[C@H](CC(C)C)NC(=O)[C@H](CC(C)C)NC(=O)[C@H](CCC(N)=O)NC(=O)[C@H](Cc1c[nH]cn1)NC(=O)[C@H](CCC(=O)O)NC(=O)[C@H](CO)NC(=O)[C@@H](NC(=O)[C@H](C)N)C(C)C)[C@@H](C)CC)C(=O)N[C@@H](C)C(=O)N[C@@H](CCC(=O)O)C(N)=O [A18, 22, L25, K26-PTHrP(1-30)NH, A18,22,L25,K26-PTHrP(1-30)] | – | –
0.251 nM | 0.251 nM | – | 9240 nM | 68.8 % parent | 0.241 nM | 0.241 nM | – | 145 % parent | – | CC[C@H](C)[C@H](NC(=O)[C@H](CC(C)C)NC(=O)[C@H](CCCCN)NC(=O)[C@H](Cc1c[nH]cn1)NC(=O)[C@H](CC(C)C)NC(=O)[C@H](Cc1ccccc1)NC(=O)[C@H](C)NC(=O)[C@H](CCCNC(=N)N)NC(=O)[C@H](CCCNC(=N)N)NC(=O)[C@H](CCCNC(=N)N)NC(=O)[C@H](CCC(=O)O)NC(=O)[C@H](CC(=O)O)NC(=O)[C@H](CCC(N)=O)NC(=O)[C@@H](NC(=O)[C@H](CO)NC(=O)[C@H](CCCCN)NC(=O)CNC(=O)[C@H](CCCCN)NC(=O)[C@H](CC(=O)O)NC(=O)[C@H](Cc1c[nH]cn1)NC(=O)[C@H](CC(C)C)NC(=O)[C@H](CC(C)C)NC(=O)[C@H](CCC(N)=O)NC(=O)[C@H](Cc1c[nH]cn1)NC(=O)[C@H](CCC(=O)O)NC(=O)[C@H](CO)NC(=O)[C@@H](NC(=O)[C@H](C)N)C(C)C)[C@@H](C)CC)C(N)=O [E18, A22, K26-PTHrP(1-28)NH, E18,A22,K26-PTHrP(1-28)] (H-AVSEHQLLHDKGKSIQDERRRAFLHKLI-NH2; N-terminus assumed) | 301 % parent | –
– | – | – | – | 155 % parent | – | 0.038 nM | – | 175 % parent | – | AVSEHQLLHDKGKSIQDARRRSFLHKLI [A18, S22, K26-PTHrP(1-28)NH, A18,S22,K26-PTHrP(1-28)] | 372 % parent | –
